SMILES strings stand for the structures. Structures can show the parent of a compound that is named as a salt.

As usually defined, the melting point is the temperature of the solid-liquid transition. With `CCCCc1nc2cc(Br)cc(C(=O)O)c2n1Cc1ccccc1Cl` [Example 4, 5-Bromo-2-n-butyl-1-(2-chlorophenyl)methyl-1H-benzimidazole-7-carboxylic Acid], the melting point is 254 to 255 °C. The figure for `CCCSc1ncc(C[C@H](NC(=O)CCC)C(=O)O)n1Cc1ccccc1Cl` [Example 1, 3-[(2-Chlorophenyl)methyl]-2-propylthio-N-butyrylhistidine] is 178 to 181 °C; for `CCCCc1ncc(CC(Cc2ccccc2)C(=O)O)n1Cc1ccccc1Cl` (stereo not drawn) (as salt: hydrochloride) [Example 2, 3-[2-n-Butyl-1-{(2-chlorophenyl)methyl}-1H-imidazol-5-yl]-2-benzylpropanoic Acid] it is 118 to 120 °C.

Values taken from patent US20030004201A1, “Medicament” (SmithKline Beecham p.l.c., priority 1990, published 2003).
